Reference: ChEMBL document CHEMBL1221163, “Monocarboxylate transporter MCT1 is a target for immunosuppression” (Nat Chem Biol, 2005)
Blank lines part the entries; values can stand above or below the compound they belong to. Active and inactive are the calls of the source. The rule behind the calls is not given here.

How the values were obtained:
T-cell [1] = assay: Antiproliferative activity against human T cells assessed as inhibition of PMA-ionomycin stimulated cell proliferation by [3H]thymidine incorporation assay; type: functional, cell-based
T-cell [2] = assay: Antiproliferative activity against Lewis rat T cells assessed as inhibition of PMA-ionomycin stimulated cell proliferation by [3H]thymidine incorporation assay; type: functional, cell-based
PBMC = assay: Antiproliferative activity against human PBMC assessed as inhibition of PMA/ionomycin-stimulated cell proliferation by [3H]thymidine incorporation assay; type: functional, cell-based
Rattus norvegicus [3] = assay: Inhibition of graft-versus-host response-induced lymph node expansion in DA/Lewis recipient rat administered once daily through subcutaneous route; type: functional; details: sc
T-cell [4] = assay: Inhibition of DNA synthesis in PMA-ionomycin stimulated human T cells after 4 hrs by [3H]thymidine incorporation assay; type: functional, cell-based
T-cell [5] = assay: Reduction in extracellular lactate production in PMA-ionomycin stimulated human T cells after 4 hrs; type: functional, cell-based
T-cell [6] = assay: Increase in intracellular lactate production in PMA-ionomycin stimulated human T cells after 4 hrs; type: functional, cell-based
[7] = Antiproliferative activity against human T cells assessed as inhibition of PMA-ionomycin stimulated cell proliferation after 3 days by [3H]thymidine incorporation assay; type: functional, cell-based
T-cell [8] = assay: Inhibition of conversion of [1,2-13C2]glucose into [2,3-13C2]lactate in PMA-ionomycin stimulated human T cells at 10 nM after 6 hrs by GC-MS method; type: functional, cell-based
[9] = target: T1, Monocarboxylate transporter 1 (Homo sapiens) (UniProt P53985); details: INS1, 10 nM
T1 sequence (whole entry): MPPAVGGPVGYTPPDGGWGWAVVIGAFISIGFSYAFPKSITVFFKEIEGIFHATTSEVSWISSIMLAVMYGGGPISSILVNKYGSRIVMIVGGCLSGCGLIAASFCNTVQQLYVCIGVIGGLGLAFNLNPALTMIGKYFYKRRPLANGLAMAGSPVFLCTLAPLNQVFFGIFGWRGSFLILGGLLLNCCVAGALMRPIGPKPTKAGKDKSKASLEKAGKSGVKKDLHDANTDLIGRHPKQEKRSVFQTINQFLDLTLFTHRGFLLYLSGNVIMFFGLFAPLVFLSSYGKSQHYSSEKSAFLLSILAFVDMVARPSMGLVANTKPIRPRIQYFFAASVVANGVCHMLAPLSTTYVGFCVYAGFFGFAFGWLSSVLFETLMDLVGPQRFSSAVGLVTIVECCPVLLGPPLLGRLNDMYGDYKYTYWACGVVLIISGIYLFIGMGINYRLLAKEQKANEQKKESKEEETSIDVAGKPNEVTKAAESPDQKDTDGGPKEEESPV

[10] = target: T2, Monocarboxylate transporter 1 (Homo sapiens, UniProt P53985); assay: Displacement of [3H]5-[(3-hydroxypropyl)thio]-3-methyl-1-[2-(methyl-t)propyl-2,3-t2]-6-(1-naphthalenylmethyl)-1H-pyrrolo[3,4-d]pyrimidine-2,4(3H,6H)-dione from MCT1 in human Jurkat cell membranes
T2 sequence (P53985 whole entry): T1 sequence (whole entry)

[11] = target: T2, Monocarboxylate transporter 1; assay: Displacement of [3H]5-[(3-hydroxypropyl)thio]-3-methyl-1-[2-(methyl-t)propyl-2,3-t2]-6-(1-naphthalenylmethyl)-1H-pyrrolo[3,4-d]pyrimidine-2,4(3H,6H)-dione from human MCT1 expressed in INS1 cell membrane; type: cell membranes; details: read-out: pKi (converted)
[12] = target: T3, Monocarboxylate transporter 1 (Rattus norvegicus) (UniProt P53987); assay: 6-[[4-azido-3-(iodo-125I)phenyl]methyl]-2,6-dihydro-2-methyl-4-(2-methylpropyl)-1H-pyrrolo[3,4-d]pyridazin-1-one from MCT1 in rat RBC membranes at 50 nM by photoaffinity labeling study; type: cell membranes
T3 sequence (whole entry): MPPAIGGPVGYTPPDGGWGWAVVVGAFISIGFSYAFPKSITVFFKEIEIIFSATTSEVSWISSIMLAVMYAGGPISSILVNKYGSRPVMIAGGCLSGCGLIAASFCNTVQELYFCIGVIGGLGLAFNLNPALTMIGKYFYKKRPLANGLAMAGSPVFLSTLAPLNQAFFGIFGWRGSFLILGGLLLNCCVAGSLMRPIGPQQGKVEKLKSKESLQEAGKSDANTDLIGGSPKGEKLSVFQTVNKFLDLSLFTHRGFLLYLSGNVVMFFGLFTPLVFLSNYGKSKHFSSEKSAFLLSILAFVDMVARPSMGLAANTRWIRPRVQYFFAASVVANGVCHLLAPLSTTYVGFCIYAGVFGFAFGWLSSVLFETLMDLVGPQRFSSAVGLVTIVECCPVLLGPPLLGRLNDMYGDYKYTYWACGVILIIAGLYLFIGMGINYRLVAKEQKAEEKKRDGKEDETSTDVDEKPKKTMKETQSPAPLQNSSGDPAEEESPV

[13] = target: T3, Monocarboxylate transporter 1 (Rattus norvegicus); assay: 6-[[4-azido-3-(iodo-125I)phenyl]methyl]-2,6-dihydro-2-methyl-4-(2-methylpropyl)-1H-pyrrolo[3,4-d]pyridazin-1-one from MCT1 in rat RBC ghost membranes at 1 uM by photoaffinity labeling study; type: cell membranes
HUVEC [14] = assay: Antiproliferative activity against human HUVEC assessed as inhibition of acidic FGF-stimulated cell proliferation by fluorimetric assay; type: functional, cell-based
HUVEC [15] = assay: Antiproliferative activity against human HUVEC assessed as inhibition of basic FGF-stimulated cell proliferation by fluorimetric assay; type: functional, cell-based
[16] = Antiproliferative activity against human primary epidermal keratinocytes assessed as inhibition of cell proliferation by fluorimetric assay; type: functional, cell-based; details: Keratinocyte
HEK293 [17] = assay: Antiproliferative activity against HEK293 cells assessed as inhibition of cell proliferation by fluorimetric assay; type: functional, cell-based; details: Homo sapiens
THP-1 [18] = assay: Antiproliferative activity against human THP1 cells assessed as inhibition of cell proliferation by fluorimetric assay; type: functional, cell-based
K562 [19] = assay: Antiproliferative activity against human K562 cells assessed as inhibition of cell proliferation by fluorimetric assay; type: functional, cell-based
HT-29 [20] = assay: Antiproliferative activity against human HT-29 cells assessed as inhibition of cell proliferation by fluorimetric assay; type: functional, cell-based
SW480 [21] = assay: Antiproliferative activity against human SW480 cells assessed as inhibition of cell proliferation by fluorimetric assay; type: functional, cell-based
ZR-75-1 [22] = assay: Antiproliferative activity against human ZR-75-1 cells assessed as inhibition of cell proliferation by fluorimetric assay; type: functional, cell-based
PANC-1 [23] = assay: Antiproliferative activity against human PANC1 cells assessed as inhibition of cell proliferation by fluorimetric assay; type: functional, cell-based
T-24 [24] = assay: Antiproliferative activity against human T24 cells assessed as inhibition of cell proliferation by fluorimetric assay; type: functional, cell-based
[25] = Antiproliferative activity against human KIT225 cells assessed as inhibition of IL2-stimulated cell proliferation by fluorimetric assay; type: functional, cell-based
HUVEC [26] = assay: Antiproliferative activity against human HUVEC assessed as inhibition of acidic FGF-stimulated cell proliferation at 1 uM by fluorimetric assay; type: functional
HUVEC [27] = assay: Antiproliferative activity against human HUVEC assessed as inhibition of basic FGF-stimulated cell proliferation at 1 uM by fluorimetric assay; type: functional
[28] = Antiproliferative activity against human primary epidermal keratinocytes assessed as inhibition of cell proliferation at 1 uM by fluorimetric assay; type: functional; details: Keratinocyte
HEK293 [29] = assay: Antiproliferative activity against HEK293 cells assessed as inhibition of cell proliferation at 1 uM by fluorimetric assay; type: functional; details: Homo sapiens
THP-1 [30] = assay: Antiproliferative activity against human THP1 cells assessed as inhibition of cell proliferation at 1 uM by fluorimetric assay; type: functional
K562 [31] = assay: Antiproliferative activity against human K562 cells assessed as inhibition of cell proliferation at 1 uM by fluorimetric assay; type: functional
HT-29 [32] = assay: Antiproliferative activity against human HT-29 cells assessed as inhibition of cell proliferation at 1 uM by fluorimetric assay; type: functional
SW480 [33] = assay: Antiproliferative activity against human SW480 cells assessed as inhibition of cell proliferation at 1 uM by fluorimetric assay; type: functional
ZR-75-1 [34] = assay: Antiproliferative activity against human ZR-75-1 cells assessed as inhibition of cell proliferation at 1 uM by fluorimetric assay; type: functional
PANC-1 [35] = assay: Antiproliferative activity against human PANC1 cells assessed as inhibition of cell proliferation at 1 uM by fluorimetric assay; type: functional
T-24 [36] = assay: Antiproliferative activity against human T24 cells assessed as inhibition of cell proliferation at 1 uM by fluorimetric assay; type: functional
[37] = Antiproliferative activity against human KIT225 cells assessed as inhibition of IL2-stimulated cell proliferation at 1 uM by fluorimetric assay; type: functional
[38] = target: T4, Monocarboxylate transporter 3 (Homo sapiens) (UniProt O95907); assay: Inhibition of human MCT3 expressed in INS1 cells assessed as reduction in intracellular acidification at 100 nM after 1 hr by L-Lactate uptake based BCECF staining; type: cell-based
T4 sequence (whole entry): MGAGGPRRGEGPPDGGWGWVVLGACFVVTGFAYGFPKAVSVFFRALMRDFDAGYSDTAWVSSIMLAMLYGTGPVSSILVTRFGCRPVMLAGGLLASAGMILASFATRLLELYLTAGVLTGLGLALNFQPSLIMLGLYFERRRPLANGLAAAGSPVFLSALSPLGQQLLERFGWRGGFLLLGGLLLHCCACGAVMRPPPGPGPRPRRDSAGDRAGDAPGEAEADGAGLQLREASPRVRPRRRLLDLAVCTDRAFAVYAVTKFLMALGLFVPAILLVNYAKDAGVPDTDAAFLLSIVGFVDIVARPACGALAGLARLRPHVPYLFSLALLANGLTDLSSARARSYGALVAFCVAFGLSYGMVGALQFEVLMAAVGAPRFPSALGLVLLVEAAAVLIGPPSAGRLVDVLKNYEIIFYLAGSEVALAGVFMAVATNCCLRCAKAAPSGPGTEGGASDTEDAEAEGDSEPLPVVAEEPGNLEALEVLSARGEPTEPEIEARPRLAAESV

[39] = target: T5, Monocarboxylate transporter 4 (Homo sapiens) (UniProt O15427); assay: Inhibition of human MCT4 expressed in INS1 cells assessed as reduction in intracellular acidification at 100 nM after 1 hr by L-Lactate uptake based BCECF staining; type: cell-based
T5 sequence (whole entry): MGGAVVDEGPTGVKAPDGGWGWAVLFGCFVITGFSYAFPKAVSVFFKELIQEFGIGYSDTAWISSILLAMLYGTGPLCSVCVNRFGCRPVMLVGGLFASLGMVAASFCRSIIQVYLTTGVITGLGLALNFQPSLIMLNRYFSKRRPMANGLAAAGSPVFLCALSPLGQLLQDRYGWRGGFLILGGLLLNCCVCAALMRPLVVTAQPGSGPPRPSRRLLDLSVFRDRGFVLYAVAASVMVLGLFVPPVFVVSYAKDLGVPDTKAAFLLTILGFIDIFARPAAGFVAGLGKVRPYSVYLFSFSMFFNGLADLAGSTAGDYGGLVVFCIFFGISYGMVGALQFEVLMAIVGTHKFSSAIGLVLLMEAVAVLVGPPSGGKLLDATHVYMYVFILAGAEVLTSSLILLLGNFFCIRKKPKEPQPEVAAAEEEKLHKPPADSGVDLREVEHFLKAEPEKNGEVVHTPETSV

Rattus norvegicus [40] = species: Rattus norvegicus; details: DA/Lewis, 4 mg/kg
T-cell [41] = details: Homo sapiens, 10 uM
T-cell [42] = details: Homo sapiens, 10 uM; remark: listed apart in the source
T-cell [43] = details: Homo sapiens, 50 nM

SMILES: CC(C)Cn1c(=O)n(C)c(=O)c2cn(Cc3cccc4ccccc34)cc21
IC50 (PBMC): 0.0562 µM
Ki [10]: 0.0155 µM
Ki [11]: 0.0468 µM

SMILES: CC(C)Cn1c(=O)[nH]c(=O)c2c(C(=O)N3CCC3)c(Cc3ccccc3C(F)(F)F)sc21
IC50 (PBMC): > 1 µM
Ki [10]: > 0.2 µM
inhibition [12]: Active

SMILES: CC(C)Cn1c(=O)n(C)c(=O)c2c(SCCCO)c(Cc3cccc4ccccc34)sc21
IC50 (HUVEC [14]): > 1 µM
IC50 (HUVEC [15]): > 1 µM
IC50 [16]: > 1 µM
IC50 (HEK293 [17]): > 1 µM
IC50 (THP-1 [18]): > 1 µM
IC50 (K562 [19]): > 1 µM
IC50 (HT-29 [20]): > 1 µM
IC50 (SW480 [21]): > 1 µM
IC50 (ZR-75-1 [22]): > 1 µM
IC50 (PANC-1 [23]): > 1 µM
IC50 (T-24 [24]): > 1 µM
IC50 [25]: 0.0011 µM
inhibition at 1 µM (HUVEC [26]): < 20%
inhibition at 1 µM (HUVEC [27]): < 20%
inhibition at 1 µM [28]: < 20%
inhibition at 1 µM (HEK293 [29]): < 20%
inhibition at 1 µM (THP-1 [30]): < 20%
inhibition at 1 µM (K562 [31]): < 20%
inhibition at 1 µM (HT-29 [32]): < 20%
inhibition at 1 µM (SW480 [33]): < 20%
inhibition at 1 µM (ZR-75-1 [34]): < 20%
inhibition at 1 µM (PANC-1 [35]): < 20%
inhibition at 1 µM (T-24 [36]): < 20%
inhibition at 1 µM [37]: 61%
inhibition (T-cell [1]): Active
inhibition (T-cell [2]): Active
inhibition (PBMC): Active
ED50 (Rattus norvegicus [3]): 1.4 mg/kg/day
inhibition [38]: inactive
inhibition [39]: inactive
IC50 (T-cell [6]): 0.000407 µM
IC50 [7]: 0.000234 µM
inhibition (T-cell [8]): Active
inhibition (Rattus norvegicus [40]): Active
inhibition (T-cell [41]): inactive
inhibition (T-cell [42]): inactive
inhibition (T-cell [43]): Active

SMILES: CC(C)Cn1c(=O)n(C)c(=O)c2c(SCCCO)c(Cc3ccccc3C(F)(F)F)sc21
IC50 (PBMC): 0.000257 µM

The next lines start with results.

IC50 (T-cell [4]): 0.00135 µM
IC50 (T-cell [5]): 0.000794 µM
IC50 (T-cell [6]): 0.00055 µM
inhibition [9]: Active
SMILES: CC(C)Cc1nn(C)c(=O)c2c(SCCCO)n(Cc3cccc4ccccc34)cc12
inhibition (T-cell [1]): Active
inhibition (T-cell [2]): Active
inhibition (PBMC): Active
ED50 (Rattus norvegicus [3]): 5 mg/kg/day
IC50 [7]: 0.00038 µM
inhibition (T-cell [8]): Active

inhibition [13]: Active
SMILES: CC(C)Cn1c(=O)n(C)c(=O)c2c(SCCCO)n(Cc3cccc4ccccc34)cc21
inhibition (T-cell [1]): Active
inhibition (T-cell [2]): Active
IC50 (PBMC): 0.00245 µM
inhibition (PBMC): Active
